Read-outs that look alike come from different tables or passages of the source.
How the values were obtained:
α1β3γ2 GABAA receptor = α1β3γ2 GABAA receptor (Rattus norvegicus, UniProt P18508+P62813); experiment: Two-electrode voltage clamp in Xenopus oocytes, α1β3γ2; settings: oocytes
[1] = molecular target: T1, α3β3γ2 benzodiazepine receptor GABA(A) isoform (UniProt P18507+P34903); experiment: Radioligand competition binding, α3β3γ2 BzR/GABA(A) isoform; parameters: species or system human and rat
T1 sequence (P18507 1-475): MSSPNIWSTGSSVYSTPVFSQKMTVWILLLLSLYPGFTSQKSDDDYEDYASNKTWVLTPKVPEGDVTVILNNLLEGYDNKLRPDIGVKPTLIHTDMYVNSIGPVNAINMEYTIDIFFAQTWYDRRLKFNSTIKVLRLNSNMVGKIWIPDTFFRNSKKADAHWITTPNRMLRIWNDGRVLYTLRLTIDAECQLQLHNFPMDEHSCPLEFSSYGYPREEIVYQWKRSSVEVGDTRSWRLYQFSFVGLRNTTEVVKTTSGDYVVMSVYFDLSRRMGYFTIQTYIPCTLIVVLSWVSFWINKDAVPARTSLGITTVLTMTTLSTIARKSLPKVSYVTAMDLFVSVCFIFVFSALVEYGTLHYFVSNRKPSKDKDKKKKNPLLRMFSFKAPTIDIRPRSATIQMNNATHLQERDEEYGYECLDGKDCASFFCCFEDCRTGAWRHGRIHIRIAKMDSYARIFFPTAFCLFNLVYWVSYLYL
T1 sequence (P34903 1-492): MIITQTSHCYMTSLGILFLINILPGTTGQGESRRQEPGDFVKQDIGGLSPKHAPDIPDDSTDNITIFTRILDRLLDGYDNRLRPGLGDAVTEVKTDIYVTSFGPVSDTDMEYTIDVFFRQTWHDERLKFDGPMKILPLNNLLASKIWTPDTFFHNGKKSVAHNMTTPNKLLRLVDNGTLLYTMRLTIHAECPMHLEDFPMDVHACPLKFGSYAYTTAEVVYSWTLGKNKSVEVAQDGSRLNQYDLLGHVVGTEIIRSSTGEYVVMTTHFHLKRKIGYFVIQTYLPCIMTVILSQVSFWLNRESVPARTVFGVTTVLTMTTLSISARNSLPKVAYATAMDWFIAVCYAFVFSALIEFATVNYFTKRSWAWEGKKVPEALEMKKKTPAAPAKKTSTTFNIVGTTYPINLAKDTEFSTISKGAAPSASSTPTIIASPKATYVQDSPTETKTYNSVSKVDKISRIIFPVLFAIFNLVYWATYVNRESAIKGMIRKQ
Description: The affinity of all ligands at the 6 major recombinant GABAA/BzR subtypes was measured by competition for [^3H]Ro15-1788 binding to HEK-T cells expressing both human and rat GABAA/Bz receptors of composition α1β2γ2 (α1), α2β2γ2 (α2), α3β2γ2 (α3), α4β2γ2 (α4), α5β2γ2 (α5) and α6β2γ2 (α6). It is well known that the β2 and β3 subunits can be interchanged with no effect on Bz ligand affinity or efficacy. […] These studies are similar to those performed in the laboratory of Bryan Roth who has already expressed the receptors employing the work of Kucken et. al. and Gray et. al.
In brief, for membrane preparations, the cells were scraped on to the ice and diluted into 5 mL of phosphate buffered saline (pH=7.40) and cells pelleted by centrifugation for 5 min. at 4° C. The pellet was resuspended in 1 mL of 50 mM Tris-acetate buffer (pH 7.4) and centrifuged at 18,000 g for 20 min. […] Each pellet were diluted to 6 mL and then 100 μL of membranes were incubated with approximately 1 nM final concentration of [^3H]Ro 15-1788 in a total volume of 250 μL together with serial dilutions of test compound for 90 min. on ice. The membranes were harvested in polyethyleneimine-pretreated Whatman GF/C filters and after drying and addition of scintillation cocktail, counted in a scintillation counter. The cpm retained on the filters was plotted against log concentration (M) and fitted to one site competition equation to obtain the Ki using Graphpad Prizm (V4.0) using the Cheng-Prusoff approximation.

[2] = read-out: Ki α3, Table I, means of two determinations
[3] = read-out: α3, untitled table of lead compounds, unit inferred

Chain of α1β3γ2 GABAA receptor (P62813 28-455): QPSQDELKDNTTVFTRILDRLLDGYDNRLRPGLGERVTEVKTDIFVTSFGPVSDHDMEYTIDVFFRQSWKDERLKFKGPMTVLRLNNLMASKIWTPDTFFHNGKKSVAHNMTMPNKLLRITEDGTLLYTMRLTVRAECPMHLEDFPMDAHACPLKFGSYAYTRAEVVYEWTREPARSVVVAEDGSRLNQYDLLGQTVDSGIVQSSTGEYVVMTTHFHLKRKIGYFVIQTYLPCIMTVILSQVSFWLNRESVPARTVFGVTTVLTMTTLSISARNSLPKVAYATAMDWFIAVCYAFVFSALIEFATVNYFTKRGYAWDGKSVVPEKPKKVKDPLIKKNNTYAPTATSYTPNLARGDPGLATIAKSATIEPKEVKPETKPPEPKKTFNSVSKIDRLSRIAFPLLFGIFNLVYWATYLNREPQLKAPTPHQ
Chain of α1β3γ2 GABAA receptor (P63079 26-473 partner): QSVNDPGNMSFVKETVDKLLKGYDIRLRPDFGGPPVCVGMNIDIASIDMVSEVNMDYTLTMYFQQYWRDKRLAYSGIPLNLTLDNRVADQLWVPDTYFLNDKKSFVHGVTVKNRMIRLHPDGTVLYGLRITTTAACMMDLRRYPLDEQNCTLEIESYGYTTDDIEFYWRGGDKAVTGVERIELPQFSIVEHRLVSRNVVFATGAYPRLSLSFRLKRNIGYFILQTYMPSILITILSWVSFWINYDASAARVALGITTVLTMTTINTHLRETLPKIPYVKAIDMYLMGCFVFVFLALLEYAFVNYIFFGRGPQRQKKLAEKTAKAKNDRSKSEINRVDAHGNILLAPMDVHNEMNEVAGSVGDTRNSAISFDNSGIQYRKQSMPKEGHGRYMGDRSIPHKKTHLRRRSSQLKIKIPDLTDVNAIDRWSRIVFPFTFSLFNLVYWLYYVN
Chain of α1β3γ2 GABAA receptor (P18508 39-466): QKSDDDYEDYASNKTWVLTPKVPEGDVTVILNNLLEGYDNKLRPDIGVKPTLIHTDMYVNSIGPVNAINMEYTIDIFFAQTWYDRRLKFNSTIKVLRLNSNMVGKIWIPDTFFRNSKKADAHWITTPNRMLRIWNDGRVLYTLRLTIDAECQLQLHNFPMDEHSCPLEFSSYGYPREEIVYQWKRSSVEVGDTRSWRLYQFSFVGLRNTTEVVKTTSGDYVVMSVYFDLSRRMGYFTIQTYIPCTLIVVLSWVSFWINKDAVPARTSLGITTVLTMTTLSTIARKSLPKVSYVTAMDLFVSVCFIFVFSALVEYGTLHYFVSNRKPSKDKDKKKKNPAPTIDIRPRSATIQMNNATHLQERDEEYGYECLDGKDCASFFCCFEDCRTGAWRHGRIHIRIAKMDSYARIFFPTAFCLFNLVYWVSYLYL

| SMILES | efficacy / modulation of GABA elicited currents at α1 (in words) (α1β3γ2 GABAA receptor) | Ki [1, 2] [nM] | Ki [1, 3] [nM] |
| --- | --- | --- | --- |
| CCOC(=O)c1ncn2c1CN=C(c1ccccc1)c1cc(-c3ccccc3)ccc1-2 [DM-I-81, Ethyl 8-phenyl-6-phenyl-4H-benzo[f]imidazo[1,5-a][1,4]diazepine-3-carboxylate] | very poor efficacy | > 2000 | > 2000 |
| COCc1ncn2c1CN(C)C(=O)c1cc(Cl)ccc1-2 [PWZ-029, methyl(8-chloro-5,6-dihydro-5-methyl-6-oxo-4H-imidazo[1,5-α][1,4]benzodiazepin-3-yl)methyl ether] |  | > 300 | > 300 |
| CCc1ccc2c(c1)C(=O)N(C)Cc1c(C(=O)OCCCOC(=O)c3ncn4c3CN(C)C(=O)c3cc(CC)ccc3-4)ncn1-2 [XLi356, 1,3-Bis(8-ethyl-5,6-dihydro-5-methyl-6-oxo-4H-imidazo[1,5a][1,4]benzodiazepine-3-carboxy)propyl diester] | no activity |  |  |
